Assay results as given in US11938123B2, “Use of 2,3,5-substituted thiophene compound to prevent, ameliorate, or treat breast cancers” (Pharos iBio Co., Ltd., priority 2018, dated 2024).
pIC50: −log10 of the molar value.

Tests used:
BT474 [1] = experiment: Breast cancer cell line viability, PHI-101 alone (Example 1); format: cell-based; conditions: Homo sapiens, BT-474; BT474, non-triple-negative breast cancer; 72 hours; Celltiter-Glo
Protocol: (§1) Each of the breast cancer cell lines shown in Table 1 below was cultured with DMEM (Dulbecco's Modified Eagle Medium) or RPMI1640 in a 100-mm culture dish (SPL) under 5% CO2 at 37° C., and then diluted to a density of 3,000 cells/90 μl using PBS (phosphate-buffered saline) (Biosesang).
(§2) Next, 90 μl of each of the diluted breast cancer cell lines was treated with 10 μl of a 1:2 serial dilution of a hydrochloride salt of the compound represented by Formula 1 (hereinafter referred to as “PHI-101”) to a final concentration of up to 100 μM, and then cultured under 5% CO2 at 37° C. for 72 hours. After culture, the cells were counted using a Celltiter-Glo assay kit (Promega), and cell viability was measured by expressing the cell count as a percentage relative to that of a control group not treated with PHI-101.
(§3) The IC50 of PHI-101 for each breast cancer cell line was calculated by sigmoidal curve fitting using the PRIZM software, and the results of the calculation are shown in Table 2 below. It was confirmed that PHI-101 had excellent ability to inhibit the breast cancer cell lines, and that PHI-101 also had excellent ability to inhibit the triple-negative breast cancer cell lines (FIGS. 1 to 3).

BT549 [2] = experiment: as above; format: cell-based; conditions: Homo sapiens, BT-549; BT549, triple-negative breast cancer; 72 hours; Celltiter-Glo
Protocol: as §1, §2, §3

HCC1937 = experiment: as above; format: cell-based; conditions: Homo sapiens; HCC1937, triple-negative breast cancer; 72 hours; Celltiter-Glo
Protocol: as §1, §2, §3

HS578T [3] = experiment: as above; format: cell-based; conditions: Homo sapiens, Hs-578T, triple-negative breast cancer, 72 hours, Celltiter-Glo
Protocol: as §1, §2, §3

JIMT1 [4] = experiment: as above; format: cell-based; conditions: Homo sapiens, JIMT-1; JIMT1, non-triple-negative breast cancer; 72 hours; Celltiter-Glo
Protocol: as §1, §2, §3

MCF7 [5] = experiment: as above; format: cell-based; conditions: Homo sapiens; MCF7, non-triple-negative breast cancer; 72 hours; Celltiter-Glo
Protocol: as §1, §2, §3

MDA-MB-231 = experiment: as above; format: cell-based; conditions: Homo sapiens; MDA-MB-231, triple-negative breast cancer; 72 hours; Celltiter-Glo
Protocol: as §1, §2, §3

MDA-MB-435 = experiment: as above; format: cell-based; conditions: Homo sapiens; MDA-MB-435, triple-negative breast cancer; 72 hours; Celltiter-Glo
Protocol: as §1, §2, §3

MDA-MB-468 [6] = experiment: as above; format: cell-based; conditions: Homo sapiens; MDA-MB-468, triple-negative breast cancer; 72 hours; Celltiter-Glo
Protocol: as §1, §2, §3

SK-BR-3 [7] = experiment: as above; format: cell-based; conditions: Homo sapiens; SK-BR-3, non-triple-negative breast cancer; 72 hours; Celltiter-Glo
Protocol: as §1, §2, §3

T47D [8] = experiment: as above; format: cell-based; conditions: Homo sapiens, non-triple-negative breast cancer, 72 hours, Celltiter-Glo
Protocol: as §1, §2, §3

ZR-75-1 [9] = experiment: as above; format: cell-based; conditions: Homo sapiens; ZR-75-1, non-triple-negative breast cancer; 72 hours; Celltiter-Glo
Protocol: as §1, §2, §3

BT474 [10] = experiment: Cell viability, PHI-101 alone or with cisplatin (Example 2); format: cell-based; conditions: Homo sapiens, BT-474, medium instead of cisplatin, 72 hours
Protocol: (§4) Each of the breast cancer cell lines shown in Table 3 below was cultured using RPMI-1640 in a 100-mm culture dish, and then diluted to a density of 3,000 cells/90 μl using PBS.
(§5) Thereafter, 90 μl of each of the diluted breast cancer cell lines was treated with 10 μl of a 1:2 serial dilution of a hydrochloride salt of PHI-101 to a final concentration of up to 100 μM and cultured under 5% CO2 at 37° C. for 1 hour, and then treated with cisplatin at an IC50 concentration for each cell line. Groups treated with PHI-101 alone were additionally treated with 10 μl of medium instead of cisplatin. Next, each of the cell lines was cultured under 5% CO2 at 37° C. for 72 hours. Next, the cells were counted using a Celltiter-Glo assay kit (Promega), and cell viability was measured by expressing the cell count as a percentage relative to that of a control group not treated with PHI-101 and cisplatin.
(§6) IC50 for each breast cancer cell line was calculated by sigmoidal curve fitting using the PRIZM software, and the results of the calculation are shown in Table 4 below.

BT549 [11] = experiment: as above; format: cell-based; conditions: Homo sapiens, BT-549; BT549 (triple-negative); medium instead of cisplatin; 72 hours
Protocol: as §4, §5, §6

MCF7 [12] = experiment: as above; format: cell-based; conditions: Homo sapiens, medium instead of cisplatin, 72 hours
Protocol: as §4, §5, §6

T47D [13] = experiment: as above; format: cell-based; conditions: Homo sapiens, medium instead of cisplatin, 72 hours
Protocol: as §4, §5, §6

ZR-75-1 [14] = experiment: as above; format: cell-based; conditions: Homo sapiens, medium instead of cisplatin, 72 hours
Protocol: as §4, §5, §6

MDA-MB-468 [15] = experiment: Tumor inhibitory activity in mice with MDA-MB-468 tumors (Example 5); format: in vivo, NOD SCID female mice; conditions: MDA-MB-468 tumors in mice; olaparib 50 mg/kg/day, PHI-101 60 mg/kg/day; treated 28 days
Protocol: (§7) The breast cancer cell line MDA-MB-468 was monolayer-cultured in an L-15 medium supplemented with 10% heat-inactivated fetal bovine serum under 5% CO2 at 37° C. The tumor cells were subcultured so as not to exceed passages 4 to 5 before confluence by trypsin-EDTA treatment. The tumor cells growing in an exponential growth phase were harvested and counted for tumor inoculation.
(§8) As mice, 6-8-week-old NOD SCID female mice (18 to 22 g) (GemPharmatech Co., Ltd) were prepared. The mice were quarantined for 7 days before use in the experiment, and mice with abnormal health were excluded from the experiment. The mice were housed in cages (300×180×150 mm) at 22±3° C. and a relative humidity of 40% to 70% under a 12-hour light/12-hour dark cycle. During the entire experimental period except for the period specified by the protocol, the mice were allowed to freely access sterilized dry granular food (Beijing Keaoxieli Feed Co., Ltd., Beijing, China) and water.
(§9) For tumor induction, MDA-MB-468 breast cancer cells (1×10^7) in 0.1 ml of a mixture (1:1) of L-15 and Matrigel (BD, cat. No. 356234) were injected subcutaneously into the right flank of each mouse. […] Then, five mice were allocated for each group so that the average tumor volume was the same between the groups at the time point of treatment.
Measurement of the tumor volume was performed with calipers twice a week. The tumor volume (TV) (mm^3) was calculated using the following equation. TV=a×b^2/2
The tumor growth inhibition (TGI) rate was calculated according to the following equation using the tumor volume. TGI (%)=(1−T/C)×100
T=final tumor volume of experimental group/initial tumor volume of experimental group
C=final tumor volume of control group/initial tumor volume of control group
In order to evaluate whether PHI-101 and/or olaparib affects tumor inhibition in the mice, the volume and growth inhibition rate of the tumor generated by the breast cancer cell line MDA-MB-468 transplanted into the mice were analyzed according to Example 5-1-6.

[16] = Mouse body weight change in MDA-MB-468 tumor model (Example 5); format: in vivo, NOD SCID female mice; conditions: MDA-MB-468 tumor mice; olaparib 50 mg/kg/day, PHI-101 60 mg/kg/day; 28 days; FIG. 14
Protocol: as §8, §9
The body weight of each mouse was measured twice a week, and the change (%) in body weight (BW) was calculated using the following equation. BW change (%)=(BWPG-Dx/BWPG-D1)×100
In order to evaluate whether PHI-101 and/or olaparib affected the body weight of each mouse, the change in the body weight of each mouse was analyzed according to Example 5-1-5.

JIMT-1 = experiment: Tumor inhibitory activity in mice with Herceptin-resistant JIMT-1 tumors (Example 6); format: in vivo, NOD SCID female mice; conditions: JIMT-1 tumors in mice; PHI-101 60 mg/kg/day vs Herceptin 5 mg/kg/day; 3 weeks; FIG. 16
Protocol: as §7, with “The Herceptin-resistant breast cancer” for “The breast cancer”, “cell line JIMT-1 was monolayer-cultured” for “cell line MDA-MB-468 was monolayer-cultured”
As mice, 7-8-week-old NOD SCID female mice (20 to 22 g) (GemPharmatech Co., Ltd.) were prepared. The mice were quarantined for 7 days before use in the experiment, and mice with abnormal health were excluded from the experiment. The mice were housed in cages (300×180×150 mm) at 22±3° C. and a relative humidity of 40% to 70% under a 12-hour light/12-hour dark cycle. […]
Measurement of the tumor volume was performed with calipers twice a week. The tumor volume (TV) (mm^3) was calculated using the following equation. […]
The tumor growth inhibition (TGI) rate was calculated according to the following equation using the tumor volume. […]
In order to evaluate whether PHI-101 has an effect on tumor inhibition in the mice, the volume and growth inhibition rate of the tumor generated by the breast cancer cell line JIMT-1 transplanted into the mice were analyzed by performing Example 6-1-5.

BT474 [17] = experiment: Cell viability, olaparib alone or with PHI-101 (Example 3); format: cell-based; conditions: Homo sapiens, BT-474, medium instead of PHI-101, 72 hours
Protocol: (§10) Each of the breast cancer cell lines shown in Table 5 below was cultured with DMEM (Dulbecco's Modified Eagle Medium) or RPMI1640 in a 100-mm culture dish (SPL), and then diluted to a density of 3,000 cells/90 μl using PBS (phosphate-buffered saline) (Biosesang).
(§11) Thereafter, 90 μl of each of the diluted breast cancer cell lines was treated with 10 μl of a 1:2 serial dilution of olaparib to a final concentration of up to 100 μM, and cultured under 5% CO2 at 37° C. for 1 hour. Then, each breast cancer cell line was treated with a hydrochloride salt of PHI-101 to a final concentration of 1 μM. Groups treated with olaparib alone were additionally treated with 10μ of medium instead of PHI-101. Thereafter, each cell line was cultured under 5% CO2 at 37° C. for 72 hours. Then, the cells were counted using a Celltiter-Glo assay kit (Promega), and cell viability was measured by expressing the cell count as a percentage relative to that of a control group not treated with PHI-101 and olaparib.
(§12) IC50 for each breast cancer cell line was calculated by sigmoidal curve fitting using the PRIZM software, and the results of the calculation are shown in Table 6 below.

HS578T [18] = experiment: as above; format: cell-based; conditions: Homo sapiens, Hs-578T; HS578T (triple-negative); medium instead of PHI-101; 72 hours
Protocol: as §10, §11, §12

JIMT1 [19] = experiment: as above; format: cell-based; conditions: Homo sapiens, JIMT-1, medium instead of PHI-101, 72 hours
Protocol: as §10, §11, §12

MCF7 [20] = experiment: as above; format: cell-based; conditions: Homo sapiens, medium instead of PHI-101, 72 hours
Protocol: as §10, §11, §12

MDA-MB-468 [21] = experiment: as above; format: cell-based; conditions: Homo sapiens; MDA-MB-468 (triple-negative); medium instead of PHI-101; 72 hours
Protocol: as §10, §11, §12

SK-BR-3 [22] = experiment: as above; format: cell-based; conditions: Homo sapiens, medium instead of PHI-101, 72 hours
Protocol: as §10, §11, §12

T47D [23] = experiment: as above; format: cell-based; conditions: Homo sapiens, medium instead of PHI-101, 72 hours
Protocol: as §10, §11, §12

ZR-75-1 [24] = experiment: as above; format: cell-based; conditions: Homo sapiens, medium instead of PHI-101, 72 hours
Protocol: as §10, §11, §12

SMILES: NC(=O)Nc1cc(C#Cc2cccc(F)c2)sc1C(=O)N[C@H]1CCCNC1 [PHI-101, (S)-5-((3-fluorophenyl)ethynyl)-N-(piperidin-3-yl)-3-ureido thiophene-2-carboxamide]
- pIC50 (BT474 [1]): 4.83
- pIC50 (BT549 [2]): 5.79
- pIC50 (HCC1937): 5.39
- pIC50 (HS578T [3]): 5.74
- pIC50 (JIMT1 [4]): 6.57
- pIC50 (MCF7 [5]): 5.43
- pIC50 (MDA-MB-231): 5.30
- pIC50 (MDA-MB-435): 5.82
- pIC50 (MDA-MB-468 [6]): 5.43
- pIC50 (SK-BR-3 [7]): 5.39
- pIC50 (T47D [8]): 4.75
- pIC50 (ZR-75-1 [9]): 4.94
- IC50 (BT474 [10]): 14.3 µM
- IC50 (BT549 [11]): 1.71 µM
- IC50 (MCF7 [12]): 3.23 µM
- IC50 (T47D [13]): 19.2 µM
- IC50 (ZR-75-1 [14]): 11.8 µM
- T/C (MDA-MB-468 [15]): 84%
- TGI (MDA-MB-468 [15]): 16%
- Tumor volume (52 days) (MDA-MB-468 [15]): 443 ± 18 mm^3
- Change in the body weight of each mouse [16]: no significant change
- Growth inhibition rate of the Herceptin-resistant tumor, compared with Herceptin group (JIMT-1): higher

SMILES: O=C(c1cc(Cc2n[nH]c(=O)c3ccccc23)ccc1F)N1CCN(C(=O)C2CC2)CC1 [olaparib]
- IC50 (BT474 [17]): 74.6 µM
- IC50 (HS578T [18]): 186 µM
- IC50 (JIMT1 [19]): 520 µM
- IC50 (MCF7 [20]): 98 µM
- IC50 (MDA-MB-468 [21]): 47.1 µM
- IC50 (SK-BR-3 [22]): 127 µM
- IC50 (T47D [23]): 77 µM
- IC50 (ZR-75-1 [24]): 352 µM
- T/C (MDA-MB-468 [15]): 76%
- TGI (MDA-MB-468 [15]): 24%
- Tumor volume (52 days) (MDA-MB-468 [15]): 402 ± 25 mm^3
- Change in the body weight of each mouse [16]: no significant change
